Reference: patent US12257245B2, “Methods and compositions for inhibition of EGF/EGFR pathway in combination with anaplastic lymphoma kinase inhibitors” (In3Bio Ltd., priority 2018, dated 2025)

What was measured:
ALK = ALK (Homo sapiens, UniProt Q9UM73); details: cited from earlier work
[1] = in vivo; cited from earlier work
[2] = system: pEGFR (TYR 1068), pSTAT3 (TYR 705), pAKT (SER 473), pERK1/2 (THR 202/TYR 204) in DLD1 cells; assay: Western blot of signaling in DLD1 cells; type: cell-based; details: 2 hour (BVN22E antibodies alone: 2 and 24 hour)
Procedure: The effects of BVN22E antibodies were investigated in DLD1 cells via Western Blots, see FIGS. 42 and 43.
The effect of Trametinib treatment in the DLD1 cell line was also assessed in a western blot assay and the results are presented in FIG. 45. […] Inhibition of pStat3 and pERK1/2 were observed, though only at concentrations beyond the physiological concentrations of Trametinib used in patients.
BVN22E antibodies alone inhibited phosphorylation of EGFR.

Chain of ALK (Q9UM73 19-1620): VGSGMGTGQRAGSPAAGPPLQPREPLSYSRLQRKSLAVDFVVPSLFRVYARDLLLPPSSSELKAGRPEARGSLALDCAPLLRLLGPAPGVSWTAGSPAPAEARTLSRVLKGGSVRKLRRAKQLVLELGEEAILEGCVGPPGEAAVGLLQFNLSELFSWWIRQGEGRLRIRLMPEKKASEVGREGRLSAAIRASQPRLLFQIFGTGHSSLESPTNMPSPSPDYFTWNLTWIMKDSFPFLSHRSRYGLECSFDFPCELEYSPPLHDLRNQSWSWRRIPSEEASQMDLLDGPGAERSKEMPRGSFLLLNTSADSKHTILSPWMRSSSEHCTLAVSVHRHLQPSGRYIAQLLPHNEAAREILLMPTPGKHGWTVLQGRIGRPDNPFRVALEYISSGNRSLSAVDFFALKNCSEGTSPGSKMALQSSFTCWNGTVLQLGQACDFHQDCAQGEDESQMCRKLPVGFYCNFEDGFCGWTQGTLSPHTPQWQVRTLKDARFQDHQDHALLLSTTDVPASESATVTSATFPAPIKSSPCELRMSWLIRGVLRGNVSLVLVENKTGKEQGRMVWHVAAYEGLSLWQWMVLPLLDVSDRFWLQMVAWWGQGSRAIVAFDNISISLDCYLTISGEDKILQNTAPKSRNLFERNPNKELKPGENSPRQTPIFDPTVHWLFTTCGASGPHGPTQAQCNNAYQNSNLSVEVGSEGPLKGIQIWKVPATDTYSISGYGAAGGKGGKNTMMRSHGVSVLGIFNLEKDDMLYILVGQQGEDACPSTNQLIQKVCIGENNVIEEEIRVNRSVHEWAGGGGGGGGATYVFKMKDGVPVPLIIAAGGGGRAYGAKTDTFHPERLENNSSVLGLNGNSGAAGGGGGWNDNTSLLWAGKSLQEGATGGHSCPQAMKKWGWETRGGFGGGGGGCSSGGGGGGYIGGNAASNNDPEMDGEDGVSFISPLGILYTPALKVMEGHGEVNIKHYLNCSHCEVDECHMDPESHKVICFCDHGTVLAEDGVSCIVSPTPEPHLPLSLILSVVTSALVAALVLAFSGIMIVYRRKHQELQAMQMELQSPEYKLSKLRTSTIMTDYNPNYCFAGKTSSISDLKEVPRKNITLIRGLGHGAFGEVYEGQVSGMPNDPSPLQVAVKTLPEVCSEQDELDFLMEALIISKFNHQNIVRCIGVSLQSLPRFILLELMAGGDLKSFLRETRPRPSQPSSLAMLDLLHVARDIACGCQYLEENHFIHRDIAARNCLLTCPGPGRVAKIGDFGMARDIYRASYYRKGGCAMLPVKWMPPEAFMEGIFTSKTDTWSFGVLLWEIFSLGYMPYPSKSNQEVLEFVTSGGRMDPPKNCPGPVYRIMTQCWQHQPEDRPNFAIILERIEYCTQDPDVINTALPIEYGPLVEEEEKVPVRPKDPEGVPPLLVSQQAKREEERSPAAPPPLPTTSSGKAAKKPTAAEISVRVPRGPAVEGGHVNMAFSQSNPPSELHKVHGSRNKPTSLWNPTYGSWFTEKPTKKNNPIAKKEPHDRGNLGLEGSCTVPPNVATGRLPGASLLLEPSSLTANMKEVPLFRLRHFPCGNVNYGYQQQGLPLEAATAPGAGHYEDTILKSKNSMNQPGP

For `Cc1cc(Nc2ncc(Cl)c(Nc3ccccc3S(=O)(=O)C(C)C)n2)c(OC(C)C)cc1C1CCNCC1` [Ceritinib], the “potency for inhibiting alk compared with crizotinib” value (ALK; relative to crizotinib) is listed as 20 times.
In the case of `C[C@@H]1CN(C(=O)c2ccc(NC(=O)c3cc(O[C@H](C)c4c(Cl)ccc(F)c4Cl)c(N)nn3)cc2)C[C@H](C)N1` [Ensartinib], the IC50 (ALK) is given as less than 0.4 nM.
For `C[C@H]1Oc2cc(cnc2N)-c2c(nn(C)c2C#N)CN(C)C(=O)c2ccc(F)cc21` [Lorlatinib], the CNS penetration [1] is listed as “highly CNS-penetrant”.
With `CC(=O)Nc1cccc(-n2c(=O)n(C3CC3)c(=O)c3c(Nc4ccc(I)cc4F)n(C)c(=O)c(C)c32)c1` [Trametinib] the pEGFR [2] was “no effect”.
